Experiments:
Assay type in all cases: physicochemical
[1] = Stability of cannabinoid entourage and Vitamin E components of the powder concentrate by LCMSMS; conditions: for Stability of Plant-Derived Cannabinoid Compounds in Powder Concentrate: powder stored at 21-25° C.
Protocol: At each time period, 0.05 g of powder was dissolved in 10 ml-15 of ethanol, diluted to fall within the analytical range, and injected into the LCMSMS for analysis.

[2] = Stability of cannabinoid compounds and Vitamin E components in Beverage 1 (AB White) by LCMSMS; conditions: for storage time after which some slight degradation is shown: monitored 570 days
[3] = Stability of cannabinoid compounds and Vitamin E components in Beverage 2 (AB Red) by LCMSMS; conditions: monitored 570 days
[4] = Stability of Nanoemulsion Concentrate 3 (α-tocopherol and Vitamin B12 content) by LCMSMS; conditions: for Stability of Vitamin B12 in Nanoemulsion Concentrate 3: average of triplicate
Protocol: At each time period (0, 7, 28, 60, 120, 150 and 180 days), triplicate samples were analysed for content of α-tocopherol and Vitamin B12.
(FIGS. 14 and 15, Table 13). Data reported in Table 13 and plotted in FIGS. 14 and 15 are average values of the triplicate measurements taken.

## C=C(C)[C@@H]1CCC(C)=C[C@H]1c1c(O)cc(CCCCC)cc1O [CBD, cannabidiol, reference compound]
[1]; powder concentrate stored at 21-25° C., 570 days
  degradation over the entire period (in words): no significant degradation
[1]; 0 days
  Stability of Plant-Derived Cannabinoid Compounds in Powder Concentrate: 5.85 mg/g powder
[1]; 1 days
  Stability of Plant-Derived Cannabinoid Compounds in Powder Concentrate: 5.69 mg/g powder
[1]; 2 days
  Stability of Plant-Derived Cannabinoid Compounds in Powder Concentrate: 5.76 mg/g powder
[1]; 3 days
  Stability of Plant-Derived Cannabinoid Compounds in Powder Concentrate: 5.8 mg/g powder
[1]; 5 days
  Stability of Plant-Derived Cannabinoid Compounds in Powder Concentrate: 5.84 mg/g powder
[1]; 8 days
  Stability of Plant-Derived Cannabinoid Compounds in Powder Concentrate: 5.91 mg/g powder
[1]; 9 days
  Stability of Plant-Derived Cannabinoid Compounds in Powder Concentrate: 6.01 mg/g powder
[1]; 10 days
  Stability of Plant-Derived Cannabinoid Compounds in Powder Concentrate: 5.69 mg/g powder
[1]; 11 days
  Stability of Plant-Derived Cannabinoid Compounds in Powder Concentrate: 6.00 mg/g powder
[1]; 12 days
  Stability of Plant-Derived Cannabinoid Compounds in Powder Concentrate: 5.76 mg/g powder
[1]; 15 days
  Stability of Plant-Derived Cannabinoid Compounds in Powder Concentrate: 5.85 mg/g powder
[1]; 16 days
  Stability of Plant-Derived Cannabinoid Compounds in Powder Concentrate: 5.97 mg/g powder
[1]; 17 days
  Stability of Plant-Derived Cannabinoid Compounds in Powder Concentrate: 5.97 mg/g powder
[1]; 18 days
  Stability of Plant-Derived Cannabinoid Compounds in Powder Concentrate: 6.01 mg/g powder
[1]; 19 days
  Stability of Plant-Derived Cannabinoid Compounds in Powder Concentrate: 5.74 mg/g powder
[1]; 22 days
  Stability of Plant-Derived Cannabinoid Compounds in Powder Concentrate: 5.84 mg/g powder
[1]; 23 days
  Stability of Plant-Derived Cannabinoid Compounds in Powder Concentrate: 6.10 mg/g powder
[1]; 24 days
  Stability of Plant-Derived Cannabinoid Compounds in Powder Concentrate: 5.89 mg/g powder
[1]; 25 days
  Stability of Plant-Derived Cannabinoid Compounds in Powder Concentrate: 6.01 mg/g powder
[1]; 26 days
  Stability of Plant-Derived Cannabinoid Compounds in Powder Concentrate: 6.00 mg/g powder
[1]; 29 days
  Stability of Plant-Derived Cannabinoid Compounds in Powder Concentrate: 5.97 mg/g powder
[1]; 30 days
  Stability of Plant-Derived Cannabinoid Compounds in Powder Concentrate: 5.94 mg/g powder
[1]; 60 days
  Stability of Plant-Derived Cannabinoid Compounds in Powder Concentrate: 5.66 mg/g powder
[1]; 90 days
  Stability of Plant-Derived Cannabinoid Compounds in Powder Concentrate: 6.00 mg/g powder
[1]; 120 days
  Stability of Plant-Derived Cannabinoid Compounds in Powder Concentrate: 5.80 mg/g powder
[1]; 150 days
  Stability of Plant-Derived Cannabinoid Compounds in Powder Concentrate: 5.65 mg/g powder
[1]; 180 days
  Stability of Plant-Derived Cannabinoid Compounds in Powder Concentrate: 5.93 mg/g powder
[1]; 210 days
  Stability of Plant-Derived Cannabinoid Compounds in Powder Concentrate: 5.83 mg/g powder
[1]; 240 days
  Stability of Plant-Derived Cannabinoid Compounds in Powder Concentrate: 5.98 mg/g powder
[1]; 270 days
  Stability of Plant-Derived Cannabinoid Compounds in Powder Concentrate: 5.72 mg/g powder
[1]; 300 days
  Stability of Plant-Derived Cannabinoid Compounds in Powder Concentrate: 5.84 mg/g powder
[1]; 330 days
  Stability of Plant-Derived Cannabinoid Compounds in Powder Concentrate: 6.01 mg/g powder
[1]; 360 days
  Stability of Plant-Derived Cannabinoid Compounds in Powder Concentrate: 5.97 mg/g powder
[1]; 390 days
  Stability of Plant-Derived Cannabinoid Compounds in Powder Concentrate: 5.93 mg/g powder
[1]; 420 days
  Stability of Plant-Derived Cannabinoid Compounds in Powder Concentrate: 5.94 mg/g powder
[1]; 450 days
  Stability of Plant-Derived Cannabinoid Compounds in Powder Concentrate: 5.65 mg/g powder
[1]; 480 days
  Stability of Plant-Derived Cannabinoid Compounds in Powder Concentrate: 5.66 mg/g powder
[1]; 510 days
  Stability of Plant-Derived Cannabinoid Compounds in Powder Concentrate: 6.01 mg/g powder
[1]; 540 days
  Stability of Plant-Derived Cannabinoid Compounds in Powder Concentrate: 5.81 mg/g powder
[1]; 570 days
  Stability of Plant-Derived Cannabinoid Compounds in Powder Concentrate: 5.85 mg/g powder
[2]; AB White stored at 8° C., 0 days
  Stability of Plant-Derived Cannabinoid Compounds in AB White, 8° C.: 28.5 µg/mL
[2]; AB White stored at 8° C., 1 days
  Stability of Plant-Derived Cannabinoid Compounds in AB White, 8° C.: 27.65 µg/mL
[2]; AB White stored at 8° C., 2 days
  Stability of Plant-Derived Cannabinoid Compounds in AB White, 8° C.: 27.67 µg/mL
[2]; AB White stored at 8° C., 3 days
  Stability of Plant-Derived Cannabinoid Compounds in AB White, 8° C.: 27.96 µg/mL
[2]; AB White stored at 8° C., 5 days
  Stability of Plant-Derived Cannabinoid Compounds in AB White, 8° C.: 28.61 µg/mL
[2]; AB White stored at 8° C., 8 days
  Stability of Plant-Derived Cannabinoid Compounds in AB White, 8° C.: 28.47 µg/mL
[2]; AB White stored at 8° C., 9 days
  Stability of Plant-Derived Cannabinoid Compounds in AB White, 8° C.: 28.44 µg/mL
[2]; AB White stored at 8° C., 10 days
  Stability of Plant-Derived Cannabinoid Compounds in AB White, 8° C.: 27.87 µg/mL
[2]; AB White stored at 8° C., 11 days
  Stability of Plant-Derived Cannabinoid Compounds in AB White, 8° C.: 28.13 µg/mL
[2]; AB White stored at 8° C., 12 days
  Stability of Plant-Derived Cannabinoid Compounds in AB White, 8° C.: 28.10 µg/mL
[2]; AB White stored at 8° C., 15 days
  Stability of Plant-Derived Cannabinoid Compounds in AB White, 8° C.: 27.99 µg/mL
[2]; AB White stored at 8° C., 16 days
  Stability of Plant-Derived Cannabinoid Compounds in AB White, 8° C.: 28.04 µg/mL
[2]; AB White stored at 8° C., 17 days
  Stability of Plant-Derived Cannabinoid Compounds in AB White, 8° C.: 27.84 µg/mL
[2]; AB White stored at 8° C., 18 days
  Stability of Plant-Derived Cannabinoid Compounds in AB White, 8° C.: 27.87 µg/mL
[2]; AB White stored at 8° C., 19 days
  Stability of Plant-Derived Cannabinoid Compounds in AB White, 8° C.: 28.36 µg/mL
[2]; AB White stored at 8° C., 22 days
  Stability of Plant-Derived Cannabinoid Compounds in AB White, 8° C.: 28.50 µg/mL
[2]; AB White stored at 8° C., 23 days
  Stability of Plant-Derived Cannabinoid Compounds in AB White, 8° C.: 27.67 µg/mL
[2]; AB White stored at 8° C., 24 days
  Stability of Plant-Derived Cannabinoid Compounds in AB White, 8° C.: 28.44 µg/mL
[2]; AB White stored at 8° C., 25 days
  Stability of Plant-Derived Cannabinoid Compounds in AB White, 8° C.: 27.65 µg/mL
[2]; AB White stored at 8° C., 26 days
  Stability of Plant-Derived Cannabinoid Compounds in AB White, 8° C.: 27.73 µg/mL
[2]; AB White stored at 8° C., 29 days
  Stability of Plant-Derived Cannabinoid Compounds in AB White, 8° C.: 28.24 µg/mL
[2]; AB White stored at 8° C., 30 days
  Stability of Plant-Derived Cannabinoid Compounds in AB White, 8° C.: 27.93 µg/mL
[2]; AB White stored at 8° C., 60 days
  Stability of Plant-Derived Cannabinoid Compounds in AB White, 8° C.: 27.73 µg/mL
[2]; AB White stored at 8° C., 90 days
  Stability of Plant-Derived Cannabinoid Compounds in AB White, 8° C.: 27.87 µg/mL
[2]; AB White stored at 8° C., 120 days
  Stability of Plant-Derived Cannabinoid Compounds in AB White, 8° C.: 27.39 µg/mL
[2]; AB White stored at 8° C., 150 days
  Stability of Plant-Derived Cannabinoid Compounds in AB White, 8° C.: 28.59 µg/mL
[2]; AB White stored at 8° C., 180 days
  Stability of Plant-Derived Cannabinoid Compounds in AB White, 8° C.: 27.59 µg/mL
[2]; AB White stored at 8° C., 210 days
  Stability of Plant-Derived Cannabinoid Compounds in AB White, 8° C.: 27.76 µg/mL
[2]; AB White stored at 8° C., 240 days
  Stability of Plant-Derived Cannabinoid Compounds in AB White, 8° C.: 27.79 µg/mL
[2]; AB White stored at 8° C., 270 days
  Stability of Plant-Derived Cannabinoid Compounds in AB White, 8° C.: 28.07 µg/mL
[2]; AB White stored at 8° C., 300 days
  Stability of Plant-Derived Cannabinoid Compounds in AB White, 8° C.: 27.96 µg/mL
[2]; AB White stored at 8° C., 330 days
  Stability of Plant-Derived Cannabinoid Compounds in AB White, 8° C.: 27.33 µg/mL
[2]; AB White stored at 8° C., 360 days
  Stability of Plant-Derived Cannabinoid Compounds in AB White, 8° C.: 27.79 µg/mL
[2]; AB White stored at 8° C., 390 days
  Stability of Plant-Derived Cannabinoid Compounds in AB White, 8° C.: 27.50 µg/mL
[2]; AB White stored at 8° C., 420 days
  Stability of Plant-Derived Cannabinoid Compounds in AB White, 8° C.: 27.50 µg/mL
[2]; AB White stored at 8° C., 480 days
  Stability of Plant-Derived Cannabinoid Compounds in AB White, 8° C.: 27.13 µg/mL
[2]; AB White stored at 8° C., 510 days
  Stability of Plant-Derived Cannabinoid Compounds in AB White, 8° C.: 26.48 µg/mL
[2]; AB White stored at 8° C., 540 days
  Stability of Plant-Derived Cannabinoid Compounds in AB White, 8° C.: 26.51 µg/mL
[2]; AB White stored at 8° C., 570 days
  Stability of Plant-Derived Cannabinoid Compounds in AB White, 8° C.: 26.22 µg/mL
[2]; AB White stored at 8° C.
  storage time after which some slight degradation is shown: > 480 days
[2]; AB White stored at 21-25° C.
  storage time after which some slight degradation is shown: > 390 days
[3]; AB Red stored at 8° C.
  storage time after which some slight degradation is shown: > 420 days
[3]; AB Red stored at 21-25° C.
  storage time after which some slight degradation is shown: > 390 days

## Vitamin B12
[4]; Refrigerated (2-4° C.), 0 days
  Stability of Vitamin B12 in Nanoemulsion Concentrate 3: 28.67 ng/mL
[4]; Refrigerated (2-4° C.), 7 days
  Stability of Vitamin B12 in Nanoemulsion Concentrate 3: 30.33 ng/mL
[4]; Refrigerated (2-4° C.), 28 days
  Stability of Vitamin B12 in Nanoemulsion Concentrate 3: 29.33 ng/mL
[4]; Refrigerated (2-4° C.), 60 days
  Stability of Vitamin B12 in Nanoemulsion Concentrate 3: 30.00 ng/mL
[4]; Refrigerated (2-4° C.), 120 days
  Stability of Vitamin B12 in Nanoemulsion Concentrate 3: 32.00 ng/mL
[4]; Refrigerated (2-4° C.), 150 days
  Stability of Vitamin B12 in Nanoemulsion Concentrate 3: 29.67 ng/mL
[4]; Refrigerated (2-4° C.), 180 days
  Stability of Vitamin B12 in Nanoemulsion Concentrate 3: 32.50 ng/mL
[4]; Room Temperature (21-25° C.), 0 days
  Stability of Vitamin B12 in Nanoemulsion Concentrate 3: 28.67 ng/mL
[4]; Room Temperature (21-25° C.), 7 days
  Stability of Vitamin B12 in Nanoemulsion Concentrate 3: 24.00 ng/mL
[4]; Room Temperature (21-25° C.), 28 days
  Stability of Vitamin B12 in Nanoemulsion Concentrate 3: 22.67 ng/mL
[4]; Room Temperature (21-25° C.), 60 days
  Stability of Vitamin B12 in Nanoemulsion Concentrate 3: 22.67 ng/mL
[4]; Room Temperature (21-25° C.), 120 days
  Stability of Vitamin B12 in Nanoemulsion Concentrate 3: 19.67 ng/mL
[4]; Room Temperature (21-25° C.), 150 days
  Stability of Vitamin B12 in Nanoemulsion Concentrate 3: 19.00 ng/mL
[4]; Room Temperature (21-25° C.), 180 days
  Stability of Vitamin B12 in Nanoemulsion Concentrate 3: 16.50 ng/mL
[4]; after 180 days stored at 21-25° C.
  stability in Nanoemulsion Concentrate 3 (in words): some slight degradation
[4]; stored at 2-4° C., 180 days
  stability in Nanoemulsion Concentrate 3 (in words): high degree of stability
